The supplement of paper PMC3493320
Each block holds one molecule with its values, some of them ahead of it.

Test system: NCI-H295R
Experiment: IC50 (antiproliferative, ATP content)
Conditions: 48 h
Procedure, shortened: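 Compounds were pin-transferred at 8 final concentrations between 0.6 nM and 46 µM onto adrenocortical carcinoma cells (1500 per well, 1536-well plates) that had been cultured overnight in serum-free DMEM with ITS. Plates then stood 48 h at 37 °C, 5% CO2, and ATP was detected by CellTiter-Glo luminescence. IC50 was derived from logistic fits of normalised signal, and compounds giving no concentration response were noted as above the top dose.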

Structure (SMILES): CN1C(C(=O)Nc2ccccn2)=C(O)c2sccc2S1(=O)=O
IC50: > 46 µM

Structure (SMILES): Cc1ccc(-c2nc3ccc(C)cn3c2CC(=O)N(C)C)cc1
IC50: > 46 µM

Structure (SMILES): C[N+](C)(C)CCCCCCCCCC[N+](C)(C)C.[Br-].[Br-]
IC50: > 46 µM

Structure (SMILES): CO[C@H]1C=CO[C@@]2(C)Oc3c(C)c(O)c4c(c3C2=O)C2=NC3(CCN(CC(C)C)CC3)NC2=C(NC(=O)/C(C)=C\C=C\[C@H](C)[C@H](O)[C@@H](C)[C@@H](O)[C@@H](C)[C@H](OC(C)=O)[C@@H]1C)C4=O
IC50: > 46 µM

Structure (SMILES): O=C(O)c1ccccc1O.Oc1cccc2cccnc12
IC50: > 46 µM

Structure (SMILES): CCN(CC)C(C)C(=O)c1ccccc1.Cl (stereo not given)
IC50: > 46 µM

Structure (SMILES): CS(=O)(=O)O.N[C@@H]1[C@H]2CN(c3nc4c(cc3F)c(=O)c(C(=O)O)cn4-c3ccc(F)cc3F)C[C@@H]12
IC50: > 46 µM

Structure (SMILES): CCCCCCCCCCCCCCC[C@H](O)[C@H](N)CO
IC50: > 46 µM

Structure (SMILES): O=c1cc[nH]c(=S)[nH]1
IC50: > 46 µM

Structure (SMILES): N#C/C(=C1\SCC(c2ccccc2Cl)S1)n1ccnc1 (stereo not given)
IC50: > 46 µM

Structure (SMILES): OC[C@@H](O)[C@@H](O)[C@H](O)[C@H](O)CO
IC50: > 46 µM

Structure (SMILES): Nc1ccncc1
IC50: > 46 µM

Structure (SMILES): CCN[C@@H]1C[C@H](N)[C@@H](OC2OC(CN)=CCC2N)[C@H](O)[C@H]1O[C@H]1OC[C@](C)(O)[C@H](NC)[C@H]1O.CCN[C@@H]1C[C@H](N)[C@@H](OC2OC(CN)=CCC2N)[C@H](O)[C@H]1O[C@H]1OC[C@](C)(O)[C@H](NC)[C@H]1O.O=S(=O)(O)O.O=S(=O)(O)O.O=S(=O)(O)O.O=S(=O)(O)O.O=S(=O)(O)O (stereo not given in full)
IC50: > 46 µM

Structure (SMILES): CCCNCC(O)COc1ccccc1C(=O)CCc1ccccc1 (stereo not given)
IC50: > 46 µM

Structure (SMILES): C[C@H]1O[C@H](O[C@H]2[C@H](O)[C@@H](O)[C@@H](O[C@H]3[C@H](O)[C@@H](O)[C@H](O)O[C@@H]3CO)O[C@@H]2CO)[C@H](O)[C@@H](O)[C@@H]1N[C@H]1C=C(CO)[C@@H](O)[C@H](O)[C@H]1O
IC50: > 46 µM

Structure (SMILES): O=C3/C=C4/CC[C@@H]2[C@H](CC[C@]1(C)C(=O)CC[C@H]12)[C@@]4(C)CC3
IC50: > 46 µM

Structure (SMILES): OCC(O)CS (stereo not given)
IC50: > 46 µM

Structure (SMILES): n\24c1c(CCN3[C@H]1[C@](/C=C/2C(=O)OCC)(CCC3)CC)c5c4cccc5
IC50: > 46 µM

Structure (SMILES): Oc1cccc(O)c1O
IC50: > 46 µM

Structure (SMILES): CNC(=O)NC(O)C(Cl)(Cl)Cl (stereo not given)
IC50: > 46 µM

Structure (SMILES): O=c1ccc2ccccc2o1
IC50: > 46 µM

Structure (SMILES): O=C2N1[C@]([C@@]([H])2N)([H])SC(C)(C)[C@@H]1[C@@](O)=O
IC50: > 46 µM

Structure (SMILES): CC(=O)NCCCCCC(=O)O
IC50: > 46 µM

Structure (SMILES): COS(=O)(=O)[O-].C[N+]1(C)CCCCC1COC(=O)C(O)(c1ccccc1)c1ccccc1 (stereo not given)
IC50: > 46 µM

Structure (SMILES): NC(=O)CN1CC(O)CC1=O (stereo not given)
IC50: > 46 µM

Structure (SMILES): CC1=C(/C=C/C(C)=C/C=C/C(C)=C/C=C/C=C(C)/C=C/C=C(C)/C=C/C2=C(C)C(=O)CCC2(C)C)C(C)(C)CCC1=O
IC50: > 46 µM

Structure (SMILES): COC(=O)c1ccc(O)cc1
IC50: > 46 µM

Structure (SMILES): CC=Cc1ccc(O)c(OC)c1
IC50: > 46 µM

Structure (SMILES): COc1cc(O)c(C(=O)c2ccccc2)cc1S(=O)(=O)O
IC50: > 46 µM

Structure (SMILES): O=C(CS(=O)C(c1ccccc1)c1ccccc1)NO (stereo not given)
IC50: > 46 µM

Structure (SMILES): C=C(C)[C@@H]1[C@H]2OC(=O)[C@@H]1[C@]1(O)C[C@H]3O[C@]34C(=O)O[C@H]2[C@]14C.CC(C)(O)[C@@H]1[C@H]2OC(=O)[C@@H]1[C@]1(O)C[C@H]3O[C@]34C(=O)O[C@H]2[C@]14C
IC50: > 46 µM

Structure (SMILES): CCCCCCCCOC(=O)c1ccccc1C(=O)OCCCCCCCC
IC50: > 46 µM

Structure (SMILES): CN[C@H]1C[C@@H](N)[C@H](O)[C@@H](O[C@@H]2O[C@H](CO)[C@H](O)[C@@H]3OC4(O[C@H]23)O[C@H]([C@H](N)CO)[C@H](O)[C@H](O)[C@H]4O)[C@@H]1O (stereo not given in full)
IC50: > 46 µM

Structure (SMILES): O=C(NCCNCC(O)COc1ccc(O)cc1)N1CCOCC1 (stereo not given)
IC50: > 46 µM

Structure (SMILES): C/C1=C2N=C(/C=C3N=C(/C(C)=C4\[N]([Co+][CH2][C@H]5O[C@@H](n6cnc7c(N)ncnc76)[C@H](O)[C@@H]5O)C(C(CC(N)=O)C4(C)CCC(=O)NCC(C)OP(=O)([O-])O[C@H]4[C@@H](O)[C@@H](n5cnc6cc(C)c(C)cc65)O[C@@H]4CO)C4(C)N=C1C(CCC(N)=O)C4(C)CC(N)=O)C(CCC(N)=O)C\3(C)C)C(CCC(N)=O)C/2(C)CC(N)=O (stereo not given in full)
IC50: > 46 µM

Structure (SMILES): CC(=O)OCC(=O)C1CCC2C3CCC4CC(O)CCC4(C)C3C(=O)CC12C (stereo not given)
IC50: > 46 µM

Structure (SMILES): Cc1cc(NC(=O)C2=C(O)c3ccccc3S(=O)(=O)N2C)no1
IC50: > 46 µM

Structure (SMILES): NNC(=O)CP(=O)(c1ccccc1)c1ccccc1
IC50: > 46 µM

Structure (SMILES): COc1ccc(C(=O)CC(=O)c2ccc(C(C)(C)C)cc2)cc1
IC50: > 46 µM

Structure (SMILES): Nc1ccc(N)cc1
IC50: > 46 µM

Structure (SMILES): O=C(Cn1ccnc1[N+](=O)[O-])NCCO
IC50: > 46 µM

Structure (SMILES): CO/N=C(\C(=O)N[C@@H]1C(=O)N2C(C(=O)[O-])=C(C[n+]3cccc4c3CCC4)CS[C@H]12)c1csc(N)n1.O=S(=O)(O)O
IC50: > 46 µM

Structure (SMILES): NS(=O)(=O)c2cc1c(/N=C\NS1(=O)=O)cc2Cl
IC50: > 46 µM

Structure (SMILES): COc1ccc(C(=O)c2ccc(C)cc2)c(O)c1
IC50: > 46 µM

Structure (SMILES): COc1cc(S(C)=O)ccc1-c1nc2ncccc2[nH]1 (stereo not given)
IC50: > 46 µM

Structure (SMILES): O=C(O)c1nn(Cc2ccc(Cl)cc2Cl)c2ccccc12
IC50: > 46 µM

Structure (SMILES): Nc1ccc(S(=O)(=O)Nc2ncccn2)cc1
IC50: > 46 µM

Now from value to molecule:

IC50: > 46 µM
Structure (SMILES): NC(CNC([C@H](CC(C)C)N[C@]([C@@H]1CCCN1[C@]([C@H](CSSC[C@H](N)C(N[C@@H](CC3=CC=C(O)C=C3)C2=O)=O)NC([C@H](CC(N)=O)NC([C@@H](NC([C@](N2)([H])[C@@H](C)CC)=O)CCC(N)=O)=O)=O)=O)=O)=O)=O.O=C(C)O

IC50: > 46 µM
Structure (SMILES): OC[C@H]1OC(O)[C@H](O)[C@@H](O)[C@H]1O (stereo not given in full)

IC50: > 46 µM
Structure (SMILES): CC(COc1ccccc1)N(CCCl)Cc1ccccc1 (stereo not given)

IC50: > 46 µM
Structure (SMILES): COc1ccc(/C=N/NC(=O)c2ccncc2)cc1OC

IC50: > 46 µM
Structure (SMILES): COC(=O)CCC(=O)CN.Cl

IC50: > 46 µM
Structure (SMILES): Cl.NC(CO)C(=O)NNCc1ccc(O)c(O)c1O (stereo not given)

IC50: > 46 µM
Structure (SMILES): C#CCOc1ccc2c(C)cc(=O)oc2c1

IC50: > 46 µM
Structure (SMILES): CCN[C@H]1CN(CCCOC)S(=O)(=O)c2sc(S(N)(=O)=O)cc21

IC50: > 46 µM
Structure (SMILES): O[C@]([C@@H]1CSCN1)=O

IC50: > 46 µM
Structure (SMILES): CC(C)c1ccc2oc3nc(N)c(C(=O)O)cc3c(=O)c2c1

IC50: > 46 µM
Structure (SMILES): Cl.Cl.NC(=O)C1(N2CCCCC2)CCN(CCCC(=O)c2ccc(F)cc2)CC1

IC50: > 46 µM
Structure (SMILES): CCCCCCc1ccc(O)cc1O

IC50: > 46 µM
Structure (SMILES): Cc1cc(C)c(NC(=O)CN(CC(=O)O)CC(=O)O)c(C)c1Br

IC50: > 46 µM
Structure (SMILES): CC(C)(C)CC(C)(C)c1ccc(OCCO)cc1

IC50: > 46 µM
Structure (SMILES): O=C(CN1CCNCC1)NC1CCCCC1

IC50: > 46 µM
Structure (SMILES): O=S(=O)(O)NC1CCCCC1

IC50: > 46 µM
Structure (SMILES): O=C1c2c(O)cccc2[C@H]([C@@H]2O[C@H](CO)[C@@H](O)[C@H](O)[C@H]2O)c2cc(CO)cc(O)c21

IC50: > 46 µM
Structure (SMILES): O=C(O)Cc1nn(Cc2ccc(Br)cc2F)c(=O)c2ccccc12

IC50: > 46 µM
Structure (SMILES): COc1cc2ncnc(Nc3ccc(F)c(Cl)c3)c2cc1OCCCN1CCOCC1

IC50: > 46 µM
Structure (SMILES): CCCn1cnc2c1c(=O)n(CCCCC(C)=O)c(=O)n2C

IC50: > 46 µM
Structure (SMILES): CCCCC1C(=O)N(c2ccccc2)N(c2ccccc2)C1=O

IC50: > 46 µM
Structure (SMILES): CCCCO

IC50: > 46 µM
Structure (SMILES): O=S(=O)([O-])CCS.[Na+]
